Source: PMC7366380, “Discovery of a Potent and Selective Covalent Inhibitor and Activity-Based Probe for the Deubiquitylating Enzyme UCHL1, with Antifibrotic Activity” (Journal of the American Chemical Society, 2020)
Where “and” joins values, the source holds several entries; their conditions need not be identical. Identical values can stand only once.

Tests used:
Assay in all cases: In-cell proteome-wide competitive ABPP, HEK293: other DUBs and proteins
[1] = target: DUBs and other proteins in HEK293 cells (Homo sapiens, UniProt Q93009); settings: replicates A-C; for Log2 reporter intensity values: USP7: competition with ABP 2, DMSO substract (FC); for Log2 reporter intensity values: USP7, DMSO subtracted
Sequence of DUBs and other proteins in HEK293 cells (Homo sapiens, UniProt Q93009) (Q93009 whole entry): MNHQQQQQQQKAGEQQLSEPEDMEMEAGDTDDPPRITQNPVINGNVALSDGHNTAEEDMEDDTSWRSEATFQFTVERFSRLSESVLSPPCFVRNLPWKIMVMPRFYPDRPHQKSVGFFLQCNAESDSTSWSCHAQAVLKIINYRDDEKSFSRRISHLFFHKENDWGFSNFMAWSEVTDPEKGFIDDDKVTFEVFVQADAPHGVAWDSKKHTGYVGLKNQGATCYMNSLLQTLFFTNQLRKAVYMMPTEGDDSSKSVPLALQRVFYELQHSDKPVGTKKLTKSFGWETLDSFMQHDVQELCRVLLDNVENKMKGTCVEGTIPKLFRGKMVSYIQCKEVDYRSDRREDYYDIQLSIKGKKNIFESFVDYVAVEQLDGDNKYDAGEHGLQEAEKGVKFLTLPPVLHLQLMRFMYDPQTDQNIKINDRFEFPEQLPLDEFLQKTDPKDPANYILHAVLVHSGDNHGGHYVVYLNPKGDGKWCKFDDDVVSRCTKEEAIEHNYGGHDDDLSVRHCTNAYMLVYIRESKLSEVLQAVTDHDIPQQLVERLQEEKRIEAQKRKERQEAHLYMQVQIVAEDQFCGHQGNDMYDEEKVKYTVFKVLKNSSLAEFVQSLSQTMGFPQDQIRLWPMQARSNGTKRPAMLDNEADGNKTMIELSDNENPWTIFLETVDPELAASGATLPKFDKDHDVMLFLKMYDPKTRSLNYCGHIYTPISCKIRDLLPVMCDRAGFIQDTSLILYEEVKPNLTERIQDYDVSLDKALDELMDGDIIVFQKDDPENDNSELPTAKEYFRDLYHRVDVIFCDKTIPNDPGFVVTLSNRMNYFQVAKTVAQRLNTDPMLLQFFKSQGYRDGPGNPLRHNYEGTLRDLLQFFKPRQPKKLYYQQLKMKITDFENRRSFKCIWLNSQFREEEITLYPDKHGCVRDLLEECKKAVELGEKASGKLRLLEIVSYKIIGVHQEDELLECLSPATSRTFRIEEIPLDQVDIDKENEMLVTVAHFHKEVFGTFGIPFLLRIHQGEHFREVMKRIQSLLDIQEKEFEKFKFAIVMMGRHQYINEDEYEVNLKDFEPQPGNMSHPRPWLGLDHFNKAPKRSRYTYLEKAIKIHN

[2] = target: T1, DUBs and other proteins in HEK293 cells (Homo sapiens, UniProt Q86UV5); settings: for Log2 reporter intensity values: USP48: competition with ABP 2, DMSO substract (FC), replicates A-B; for Log2 reporter intensity values: USP48, DMSO subtracted
T1 sequence (Q86UV5 1-1035): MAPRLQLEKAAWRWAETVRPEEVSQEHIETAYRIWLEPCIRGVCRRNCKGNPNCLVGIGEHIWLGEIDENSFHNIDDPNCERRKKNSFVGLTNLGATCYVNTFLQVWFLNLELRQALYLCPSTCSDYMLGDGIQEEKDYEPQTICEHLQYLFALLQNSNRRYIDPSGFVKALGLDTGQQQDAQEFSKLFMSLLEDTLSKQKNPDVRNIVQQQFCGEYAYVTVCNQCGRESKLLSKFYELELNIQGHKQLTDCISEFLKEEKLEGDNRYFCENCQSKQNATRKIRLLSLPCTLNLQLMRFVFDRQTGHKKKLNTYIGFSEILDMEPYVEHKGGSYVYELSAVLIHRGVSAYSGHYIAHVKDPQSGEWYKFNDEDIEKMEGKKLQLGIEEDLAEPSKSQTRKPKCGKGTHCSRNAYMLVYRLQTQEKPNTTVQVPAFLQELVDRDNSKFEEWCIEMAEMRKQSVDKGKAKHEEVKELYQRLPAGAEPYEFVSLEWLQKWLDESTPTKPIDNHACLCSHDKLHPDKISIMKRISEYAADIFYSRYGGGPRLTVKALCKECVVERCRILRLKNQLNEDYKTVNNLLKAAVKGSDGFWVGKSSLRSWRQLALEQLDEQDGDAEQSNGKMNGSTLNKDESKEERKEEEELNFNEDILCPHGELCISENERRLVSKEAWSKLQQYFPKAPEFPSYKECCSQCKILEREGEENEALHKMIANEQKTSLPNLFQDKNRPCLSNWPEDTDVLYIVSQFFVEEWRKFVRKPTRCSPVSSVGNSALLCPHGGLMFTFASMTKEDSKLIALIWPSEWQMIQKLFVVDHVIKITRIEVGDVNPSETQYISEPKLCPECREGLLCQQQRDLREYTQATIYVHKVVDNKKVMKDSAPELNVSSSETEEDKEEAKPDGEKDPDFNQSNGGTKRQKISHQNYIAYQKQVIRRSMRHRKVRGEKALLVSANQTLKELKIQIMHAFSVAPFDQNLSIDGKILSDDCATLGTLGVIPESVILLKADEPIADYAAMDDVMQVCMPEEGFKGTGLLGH

[3] = target: DUBs and other proteins in HEK293 cells (Homo sapiens, UniProt P54578); settings: replicates A-C; for Log2 reporter intensity values: USP14: competition with ABP 2, DMSO substract (FC); for Log2 reporter intensity values: USP14, DMSO subtracted
Sequence of DUBs and other proteins in HEK293 cells (Homo sapiens, UniProt P54578) (P54578 whole entry): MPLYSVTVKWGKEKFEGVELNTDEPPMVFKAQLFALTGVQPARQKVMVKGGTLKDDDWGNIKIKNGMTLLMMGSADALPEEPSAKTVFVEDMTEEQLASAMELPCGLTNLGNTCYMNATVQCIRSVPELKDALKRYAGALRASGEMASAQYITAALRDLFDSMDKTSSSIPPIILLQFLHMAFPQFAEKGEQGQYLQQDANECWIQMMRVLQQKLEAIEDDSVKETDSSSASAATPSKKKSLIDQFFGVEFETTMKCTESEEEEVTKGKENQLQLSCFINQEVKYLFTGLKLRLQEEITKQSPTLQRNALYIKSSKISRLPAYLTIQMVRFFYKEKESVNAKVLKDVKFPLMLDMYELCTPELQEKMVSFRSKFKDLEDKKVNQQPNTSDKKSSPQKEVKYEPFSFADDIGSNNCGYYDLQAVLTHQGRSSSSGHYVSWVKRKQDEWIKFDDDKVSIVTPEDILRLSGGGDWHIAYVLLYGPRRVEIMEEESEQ

[4] = target: DUBs and other proteins in HEK293 cells (Homo sapiens, UniProt Q7L5N1); settings: for Log2 reporter intensity values, COPS6: TMT replicates; for Log2 reporter intensity values: COPS6: competition with ABP 2, DMSO substract (FC); for Log2 reporter intensity values: COPS6 / Log2 reporter intensity values: replicates A-C; for Log2 t-test Difference / Log2 reporter intensity values: COPS6
Sequence of DUBs and other proteins in HEK293 cells (Homo sapiens, UniProt Q7L5N1) (Q7L5N1 whole entry): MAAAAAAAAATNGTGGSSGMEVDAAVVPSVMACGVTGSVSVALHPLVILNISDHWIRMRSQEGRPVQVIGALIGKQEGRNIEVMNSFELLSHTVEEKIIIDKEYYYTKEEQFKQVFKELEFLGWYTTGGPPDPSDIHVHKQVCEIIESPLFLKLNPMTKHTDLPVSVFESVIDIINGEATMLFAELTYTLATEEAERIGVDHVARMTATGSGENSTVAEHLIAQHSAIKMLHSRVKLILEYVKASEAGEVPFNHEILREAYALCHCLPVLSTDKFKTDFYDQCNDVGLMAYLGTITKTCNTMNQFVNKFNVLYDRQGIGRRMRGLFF

[5] = target: DUBs and other proteins in HEK293 cells (Homo sapiens, UniProt O00303); settings: for Log2 reporter intensity values, EIF3F: TMT replicates; for Log2 reporter intensity values: EIF3F: competition with ABP 2, DMSO substract (FC); for Log2 reporter intensity values: EIF3F / Log2 reporter intensity values: replicates A-C; for Log2 t-test Difference / Log2 reporter intensity values: EIF3F
Sequence of DUBs and other proteins in HEK293 cells (Homo sapiens, UniProt O00303) (O00303 whole entry): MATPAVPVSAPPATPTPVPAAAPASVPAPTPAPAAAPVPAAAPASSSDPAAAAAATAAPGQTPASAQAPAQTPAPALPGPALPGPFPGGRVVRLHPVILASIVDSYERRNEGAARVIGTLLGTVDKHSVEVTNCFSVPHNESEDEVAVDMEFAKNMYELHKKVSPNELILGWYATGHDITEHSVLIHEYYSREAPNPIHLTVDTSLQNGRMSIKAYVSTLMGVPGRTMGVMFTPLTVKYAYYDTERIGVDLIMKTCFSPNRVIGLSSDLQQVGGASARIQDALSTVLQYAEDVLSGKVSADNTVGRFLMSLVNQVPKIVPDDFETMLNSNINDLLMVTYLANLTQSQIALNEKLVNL

[6] = target: DUBs and other proteins in HEK293 cells (Homo sapiens, UniProt Q9UPU5); settings: replicates A-C; for Log2 reporter intensity values: USP24: competition with ABP 2, DMSO substract (FC); for Log2 reporter intensity values: USP24, DMSO subtracted
Sequence of DUBs and other proteins in HEK293 cells (Homo sapiens, UniProt Q9UPU5) (Q9UPU5 whole entry): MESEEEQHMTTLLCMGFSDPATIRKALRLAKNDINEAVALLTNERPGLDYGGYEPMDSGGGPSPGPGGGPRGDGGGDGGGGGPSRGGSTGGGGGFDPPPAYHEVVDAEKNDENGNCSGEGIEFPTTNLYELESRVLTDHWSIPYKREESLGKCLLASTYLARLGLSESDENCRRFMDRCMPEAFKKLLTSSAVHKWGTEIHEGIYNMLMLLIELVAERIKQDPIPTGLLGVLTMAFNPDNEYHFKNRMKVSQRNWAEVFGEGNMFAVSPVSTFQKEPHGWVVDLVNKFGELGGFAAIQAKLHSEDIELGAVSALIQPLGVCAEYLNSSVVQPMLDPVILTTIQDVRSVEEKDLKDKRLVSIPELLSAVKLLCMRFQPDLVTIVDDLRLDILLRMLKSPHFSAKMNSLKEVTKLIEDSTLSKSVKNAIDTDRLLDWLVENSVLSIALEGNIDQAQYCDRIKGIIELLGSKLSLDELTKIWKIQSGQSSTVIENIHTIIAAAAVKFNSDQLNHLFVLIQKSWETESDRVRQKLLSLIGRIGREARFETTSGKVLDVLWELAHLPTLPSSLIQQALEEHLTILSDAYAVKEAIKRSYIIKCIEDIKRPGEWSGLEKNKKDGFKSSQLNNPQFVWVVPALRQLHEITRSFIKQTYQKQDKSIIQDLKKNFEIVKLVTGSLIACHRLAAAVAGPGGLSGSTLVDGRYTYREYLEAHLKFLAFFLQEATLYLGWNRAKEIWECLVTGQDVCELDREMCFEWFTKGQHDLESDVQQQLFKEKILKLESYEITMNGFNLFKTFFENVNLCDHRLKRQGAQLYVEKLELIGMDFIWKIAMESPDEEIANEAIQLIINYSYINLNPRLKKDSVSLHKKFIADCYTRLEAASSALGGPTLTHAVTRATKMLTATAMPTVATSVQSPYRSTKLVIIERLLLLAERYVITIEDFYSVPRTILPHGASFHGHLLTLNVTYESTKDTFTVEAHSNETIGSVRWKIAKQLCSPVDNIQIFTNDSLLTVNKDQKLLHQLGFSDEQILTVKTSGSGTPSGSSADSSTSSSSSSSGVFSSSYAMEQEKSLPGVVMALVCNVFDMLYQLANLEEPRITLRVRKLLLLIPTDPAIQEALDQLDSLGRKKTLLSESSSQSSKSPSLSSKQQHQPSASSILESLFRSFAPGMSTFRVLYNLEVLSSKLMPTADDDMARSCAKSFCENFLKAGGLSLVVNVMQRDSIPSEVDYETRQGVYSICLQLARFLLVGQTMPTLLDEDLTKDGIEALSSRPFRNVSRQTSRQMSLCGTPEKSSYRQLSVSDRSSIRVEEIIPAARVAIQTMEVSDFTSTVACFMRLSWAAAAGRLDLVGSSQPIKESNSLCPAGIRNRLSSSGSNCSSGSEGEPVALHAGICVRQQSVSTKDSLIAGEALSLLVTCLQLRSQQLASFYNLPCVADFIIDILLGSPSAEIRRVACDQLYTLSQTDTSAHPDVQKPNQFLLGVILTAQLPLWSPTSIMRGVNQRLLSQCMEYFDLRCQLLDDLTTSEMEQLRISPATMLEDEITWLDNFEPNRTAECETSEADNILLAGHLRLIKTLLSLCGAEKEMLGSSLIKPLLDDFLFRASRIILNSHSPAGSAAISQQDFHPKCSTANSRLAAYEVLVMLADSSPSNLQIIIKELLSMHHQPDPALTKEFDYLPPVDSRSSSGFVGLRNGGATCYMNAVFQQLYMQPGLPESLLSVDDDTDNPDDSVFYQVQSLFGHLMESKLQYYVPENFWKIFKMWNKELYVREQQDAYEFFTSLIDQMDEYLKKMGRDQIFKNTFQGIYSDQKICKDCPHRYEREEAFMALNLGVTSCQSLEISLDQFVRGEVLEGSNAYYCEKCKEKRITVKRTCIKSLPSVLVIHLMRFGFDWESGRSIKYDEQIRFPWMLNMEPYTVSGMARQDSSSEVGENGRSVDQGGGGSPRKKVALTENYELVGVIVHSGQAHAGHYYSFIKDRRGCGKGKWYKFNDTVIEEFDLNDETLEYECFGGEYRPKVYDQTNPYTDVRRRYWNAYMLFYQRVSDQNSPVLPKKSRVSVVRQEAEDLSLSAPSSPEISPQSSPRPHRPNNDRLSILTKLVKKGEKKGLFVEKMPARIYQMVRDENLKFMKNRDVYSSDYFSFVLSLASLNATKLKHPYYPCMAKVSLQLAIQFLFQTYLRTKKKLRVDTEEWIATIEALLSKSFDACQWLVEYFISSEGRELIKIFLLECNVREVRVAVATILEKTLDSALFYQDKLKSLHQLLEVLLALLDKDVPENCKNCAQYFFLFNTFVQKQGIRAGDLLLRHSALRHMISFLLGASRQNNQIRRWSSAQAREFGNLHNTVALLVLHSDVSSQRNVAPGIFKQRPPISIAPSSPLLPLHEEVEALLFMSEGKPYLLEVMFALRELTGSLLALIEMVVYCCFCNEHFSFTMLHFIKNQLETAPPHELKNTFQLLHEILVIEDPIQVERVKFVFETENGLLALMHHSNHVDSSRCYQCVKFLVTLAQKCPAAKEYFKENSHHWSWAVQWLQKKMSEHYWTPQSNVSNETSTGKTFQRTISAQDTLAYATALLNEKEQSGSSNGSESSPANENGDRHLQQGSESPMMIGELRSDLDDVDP

[7] = target: T2, DUBs and other proteins in HEK293 cells (Homo sapiens, UniProt P51665); settings: replicates A-C; for Log2 reporter intensity values: PSMD7: competition with ABP 2, DMSO substract (FC); for Log2 reporter intensity values: PSMD7, DMSO subtracted
T2 sequence (P51665 1-324): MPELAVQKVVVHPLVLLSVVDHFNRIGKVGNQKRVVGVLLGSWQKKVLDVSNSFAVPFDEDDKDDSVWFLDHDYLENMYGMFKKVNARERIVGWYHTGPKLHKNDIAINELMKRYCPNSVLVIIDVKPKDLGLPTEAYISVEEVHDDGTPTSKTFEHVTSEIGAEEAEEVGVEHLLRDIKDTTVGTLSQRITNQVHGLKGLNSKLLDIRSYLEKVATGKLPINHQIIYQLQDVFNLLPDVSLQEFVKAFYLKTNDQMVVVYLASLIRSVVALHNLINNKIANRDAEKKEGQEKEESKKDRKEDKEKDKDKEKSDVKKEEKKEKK

[8] = 1 μM 1 (60 min) + 20 nM ABP 2 (10 min), All values
[9] = 1 μM 1 (60 min) + 20 nM ABP 2 (10 min), DMSO subtracted
[10] = 4 μM 1 (60 min) + 20 nM ABP 2 (10 min), All values
[11] = 4 μM 1 (60 min) + 20 nM ABP 2 (10 min), DMSO subtracted

Log2 reporter intensity values: USP7 ([1]; 1 at 1 μM): 1.015 and 0.998 and 1.012
Log2 reporter intensity values: USP7 ([1]; 1 at 4 μM): 1.024 and 0.9908 and 1.009
Log2 reporter intensity values ([1]; 1_1 μM): 0.01464 and -0.002291 and 0.01166
Log2 reporter intensity values ([1]; 1_4 μM): 0.02367 and -0.009481 and 0.008925
Log2 reporter intensity values ([1]; 1 at 1 μM): 0.02137 and -0.002902 and 0.01712
Log2 reporter intensity values ([1]; 1 at 4 μM): 0.03415 and -0.01333 and 0.01322
Log2 reporter intensity values: USP48 ([2]; 1 at 1 μM): 1.114 and 0.9292
Log2 reporter intensity values: USP48 ([2]; 1 at 4 μM): 1.018 and 0.949
Log2 reporter intensity values ([2]; 1_1 μM, replicates A-B (C NaN)): 0.113 and -0.07208
Log2 reporter intensity values ([2]; 1_4 μM, replicates A-B (C NaN)): 0.01672 and -0.0523
Log2 reporter intensity values ([2]; 1 at 1 μM, replicates A-C): 0.1561 and -0.1059
Log2 reporter intensity values ([2]; 1 at 4 μM, replicates A-C): 0.02574 and -0.07554
Log2 reporter intensity values: USP14 ([3]; 1 at 1 μM): 1.068 and 1.073 and 1.08
Log2 reporter intensity values: USP14 ([3]; 1 at 4 μM): 1.026 and 1.014 and 1.052
Log2 reporter intensity values ([3]; 1_1 μM): 0.06753 and 0.073 and 0.0796
Log2 reporter intensity values ([3]; 1_4 μM): 0.02617 and 0.01386 and 0.05174
Log2 reporter intensity values ([3]; 1 at 1 μM): 0.09459 and 0.102 and 0.1108
Log2 reporter intensity values ([3]; 1 at 4 μM): 0.03759 and 0.02017 and 0.07309
Log2 reporter intensity values, COPS6 [4, 8]: -0.0741 and -0.01578 and 0.003018
Log2 reporter intensity values, COPS6 [4, 9]: -0.08651 and -0.02819 and -0.009395
Log2 reporter intensity values, COPS6 [4, 10]: 0.02899 and -0.02559 and 0.0005347
Log2 reporter intensity values, COPS6 [4, 11]: 0.01657 and -0.038 and -0.01188
Log2 reporter intensity values: COPS6 ([4]; 1 at 1 μM): 0.9418 and 0.9806 and 0.9935
Log2 reporter intensity values: COPS6 ([4]; 1 at 4 μM): 1.012 and 0.974 and 0.9918
Log2 t-test Difference ([4]; 1 - 1 μM): -0.08501
Log2 t-test Difference ([4]; 1 - 4 μM): -0.05474
Log2 reporter intensity values ([4]; 1_1 μM, DMSO subtracted): -0.05832 and -0.01946 and -0.006603
Log2 reporter intensity values ([4]; 1_4 μM, DMSO subtracted): 0.01144 and -0.02611 and -0.008312
Log2 reporter intensity values ([4]; 1 at 1 μM, DMSO subtracted): -0.08651 and -0.02819 and -0.009395
Log2 reporter intensity values ([4]; 1 at 4 μM, DMSO subtracted): 0.01657 and -0.038 and -0.01188
Log2 reporter intensity values, EIF3F [5, 8]: -0.05755 and -0.0632 and -0.06224
Log2 reporter intensity values, EIF3F [5, 9]: -0.048 and -0.05365 and -0.05269
Log2 reporter intensity values, EIF3F [5, 10]: 0.06402 and -0.06596 and 0.05418
Log2 reporter intensity values, EIF3F [5, 11]: 0.07357 and -0.05641 and 0.06373
Log2 reporter intensity values: EIF3F ([5]; 1 at 1 μM): 0.9673 and 0.9635 and 0.9641
Log2 reporter intensity values: EIF3F ([5]; 1 at 4 μM): 1.052 and 0.9617 and 1.045
Log2 t-test Difference ([5]; 1 - 1 μM): -0.1421
Log2 t-test Difference ([5]; 1 - 4 μM): -0.06374
Log2 reporter intensity values ([5]; 1_1 μM, DMSO subtracted): -0.03315 and -0.03692 and -0.03628
Log2 reporter intensity values ([5]; 1_4 μM, DMSO subtracted): 0.0519 and -0.03877 and 0.04475
Log2 reporter intensity values ([5]; 1 at 1 μM, DMSO subtracted): -0.048 and -0.05365 and -0.05269
Log2 reporter intensity values ([5]; 1 at 4 μM, DMSO subtracted): 0.07357 and -0.05641 and 0.06373
Log2 reporter intensity values: USP24 ([6]; 1 at 1 μM): 1.001 and 1.09 and 1.248
Log2 reporter intensity values: USP24 ([6]; 1 at 4 μM): 0.9741 and 0.9874 and 0.9877
Log2 reporter intensity values ([6]; 1_1 μM): -0.002058 and 0.08693 and 0.2444
Log2 reporter intensity values ([6]; 1_4 μM): -0.02929 and -0.01601 and -0.01571
Log2 reporter intensity values ([6]; 1 at 1 μM): 0.00188 and 0.1247 and 0.3193
Log2 reporter intensity values ([6]; 1 at 4 μM): -0.0379 and -0.01836 and -0.01793
Log2 reporter intensity values: PSMD7 ([7]; 1 at 1 μM): 1.13 and 1.005 and 1.053
Log2 reporter intensity values: PSMD7 ([7]; 1 at 4 μM): 1.07 and 1.047 and 1.231
Log2 reporter intensity values ([7]; 1_1 μM): 0.1278 and 0.002507 and 0.05011
Log2 reporter intensity values ([7]; 1_4 μM): 0.06753 and 0.04399 and 0.2288
Log2 reporter intensity values ([7]; 1 at 1 μM): 0.1768 and 0.007299 and 0.07406
Log2 reporter intensity values ([7]; 1 at 4 μM): 0.09774 and 0.06565 and 0.3003
SMILES: N#CN1CCC[C@H]1C(=O)N1CCc2c(-c3c[nH]c4ncccc34)cccc21 [Compound 1]
